Data reported in patent US6010890A, “Method for viral inactivation and compositions for use in same” (New York Blood Center, Inc., priority 1997, dated 2000).
Entries after “also recorded” stand apart in the source; their conditions may differ. Read-outs that look alike come from different tables or passages of the source.

Legend:
baboon RBC = test: Circulatory survival of baboon RBC after virucidal treatment (preliminary); assay type: in vivo
HIV (cell-assoc.) = test: Virus inactivation in RBCC using Pc4 and red light: HIV cell-associated (Example 2); assay type: cell-based
BDV = test: Virus inactivation in RBCC using Pc4 and red light: BDV (Example 2); assay type: cell-based; conditions: for Light Dose (for ≥6 log10 virus kill): Pc4 2 μM with 4 mM cysteine, 1 mM tocopherol succinate, 0.5 mM carnitine, 670 nm LED
HIV (cell-free) = test: Virus inactivation in RBCC using Pc4 and red light: HIV cell-free (Example 2); assay type: cell-based; conditions: for Light Dose (for ≥6 log10 virus kill): HIV (cell-free), Pc4 2 μM with 4 mM cysteine, 1 mM tocopherol succinate, 0.5 mM carnitine, 670 nm LED
HIV = assay type: cell-based
RBC [1] = test: Binding of Pc4 to RBC in RBCC (HPLC after extraction); assay type: in vitro ADME, human; conditions: for Pc4 Bound to RBC: 2 μM
Description: The amount of Pc4 bound to RBC in the RBCC was measured using HPLC and extraction procedure described previously (Zuk, M. M., et al. J. Chromat. B Biomed. Appl. 673:220-224 (1995)). Amount of Pc4 was expressed as a percentage of the total recovered in RBCC. Recovery of Pc4 was about 90% (±10%).
^1 Pc4 was added into RBCC at 2 μM final concentration. At various
times thereafter at room temperature, RBC were separated by
centrifugation, rinsed 5 times with PBS, and Pc4 was extracted and
analyzed by HPLC, as described. Pc4 not bound to RBC was recovered
quantitatively from the plasma.
^1 Pc4 was added into RBCC at 2 μM final concentration formulated
in the indicated liposomes. After 35 minutes at 4° C., RBC were
separated by centrifugation, rinsed 5 times with PBS, and Pc4 was analyze

RBC [2] = test: RBC hemolysis during storage following virucidal treatment (Example 1); assay type: cell-based, human
Description: FIG. 2 represents RBC hemolysis during storage following virucidal treatment. Pc4 was added into RBCC in the indicated delivery vehicle at a final concentration of 2 μM and exposed to 90 J/cm2 broad band red light at room temperature after the indicated incubation time at room temperature. The treated RBCC were stored at 4° C. prior to assay.
FIG. 4 represents RBC hemolysis during storage following virucidal treatment. PC4 was added to RBCC in the indicated liposomal formulations at 2 μM and exposed to 668 nm light at room temperature and the indicated dose after 5 minutes incubation. The treated RBCC were stored at 4° C. prior to assay.
FIG. 6 represents RBC hemolysis during storage following virucidal treatment. […] The treated RBCC were stored at 4° C. prior to assay.
RBCC samples (3 ml in polystyrene tubes) at hematocrit of 58-60% in ADSOL (obtained from Blood Services, New York Blood Center) were irradiated with red light either as a broad band (600-800 nm) or as a narrow band at 668 nm or 700 nm. Broad band light was from a 300 W xenon lamp (Oriel Corp., Stratford, Conn.) equipped with a cutoff filter (λ>600 nm) with an irradiance of 25 mW/cm^2. Narrow band light (27 nm bandwidth at half-height) was from LED arrays (Efos Canada, Inc., Mississauga, Ontario, Canada) emitting at either 668 nm or 700 nm with an irradiance of 50 mW/cm^2. During irradiation the samples were rotated and rolled on a hematology mixer (Fisher Scientific, Inc., Pittsburgh, Pa.) to obtain even exposure. Temperature was kept at 25 or 4° C. by an air stream of appropriate temperature.
Samples of RBCC were stored after treatment at 4° C. The extent of hemolysis was determined by comparing the hemoglobin in the supernatant to the total hemoglobin. The total hemoglobin was determined by using the Drabkin reagent (Sigma Procedure #525, Sigma Chemical Co., St. Louis, Mo.). The absorption at 540 nm was used to calculate the amount of hemoglobin released in the supernatant.

VSV [3] = assay type: cell-based
VSV [4] = assay type: cell-based; conditions: for Light Dose (for ≥6 log10 virus kill): Pc4 2 μM with 4 mM cysteine, 1 mM tocopherol succinate, 0.5 mM carnitine, 670 nm LED
RBC [5] = test: Hemolysis after 21 day storage of RBCC treated with liposomal Pc4 and formulations of tocopherol succinate (Example 3); assay type: cell-based; conditions: with 2 μM liposomal Pc4, 10 J/cm^2, 670 nm, 4° C.
Description: RBCC were treated with 2 μM Pc4 in POPC:DOPC=4:1 liposomes in the presence of 1 mM tocopherol succinate in the formulations presented in Table 4 below, and exposed to 10 J/cm^2 of red light (670 nm) emitted by LED array. The RBCC were then stored for 21 days at 4° C.

Description for rabbit RBC: Pc4 was added to rabbit RBCC in POPC:DOPS=4:1 liposomes at 2 μM and exposed to 0, 10 and 15 J/cm^2, as indicated, of 700 nm light at room temperature after 5 minutes pre-irradiation incubation. The treated RBCC were labeled with ^51 CrO^2- and their circulatory survival assayed as described in Materials and Methods.
Rabbit RBCC were treated as described for human red cells and their circulatory survival was determined as described previously (Rywkin, S., et al. Photochem. Photobiol. 56:463-469 (1992). Briefly, treated red cells were labelled with 1 μCi/ml Na2 ^51 CrO4 for 1 hour at room temperature and then thoroughly washed with PBS. The labelled cells were infused autologously. At intervals, 1 ml blood was withdrawn and the radioactivity associated with RBC was determined.

With CN(C)CCC[Si](C)(C)O[Si]1(O)n2c3c4ccccc4c2N=C2N=C(N=c4c5ccccc5c(n41)=NC1=NC(=N3)c3ccccc31)c1ccccc12 (stereo not drawn) [Pc4, hydroxysiloxydimethylpropyl-N-dimethyl silicon phthalocyanine] the “effect on circulatory survival of red cells” value (baboon RBC; baboon, 10 J/cm^2 of 700 nm light) was “only a slight effect”, the “24 hour recovery in vivo of the treated RBC” value (baboon RBC; baboons) was “exceeded 90%” and the “circulatory half-life and 24 hour recovery” value (baboon RBC; baboons, liposomal Pc4, 10 J/cm^2, 700 nm) was “essentially normal”. The “circulatory half-life of RBC” value (baboon RBC; baboons, liposomal Pc4 and 10 J/cm2 of 700 nm light, from 13.2 days, preliminary) was 278 h, the “Light Dose (for ≥6 log10 virus kill)” value (HIV (cell-assoc.); Blood Bags (50 ml), Pc4 2 μM with 4 mM cysteine, 1 mM tocopherol succinate, 0.5 mM carnitine, 670 nm LED) was 55 J/cm2 and the “Light Dose (at this dose only 4 log10 kill)” value (HIV (cell-assoc.); Test Tubes (3 ml), Pc4 2 μM with 4 mM cysteine, 1 mM tocopherol succinate, 0.5 mM carnitine, 670 nm LED) was 15 J/cm2. The virus kill (HIV (cell-assoc.); Test Tubes, 15 J/cm2) was 4 log10, the “Light Dose (for ≥6 log10 virus kill)” value (BDV; Blood Bags (50 ml)) was 30 J/cm2 and the “Light Dose (for ≥6 log10 virus kill)” value (BDV; Test Tubes (3 ml)) was 7 J/cm2. For the same compound, the virus kill (BDV; at the light doses of Table 3) was at least 6 log10, the “Light Dose (for ≥6 log10 virus kill)” value (HIV (cell-free); Blood Bags (50 ml)) was 55 J/cm2 and the “Light Dose (for ≥6 log10 virus kill)” value (HIV (cell-free); Test Tubes (3 ml)) was 15 J/cm2. The virus kill (HIV (cell-free); HIV, at the light doses of Table 3) was at least 6 log10, the “viral reduction of HIV versus RBC hemolysis” value (HIV) was “best viral reduction of HIV with the least amount of RBC hemolysis” and the “Pc4 binding to RBC at room temperature compared with 4° C.” value (RBC [1]; POPC:DOPS=9:1 liposomes, Tables 1 and 2) was “more binding to RBC than at 4 °C”. The “Pc4 Bound to RBC” value (RBC [1]; delivery vehicle CRM, incubation time 0 min, room temperature) was 59%, the “Pc4 Bound to RBC” value (RBC [1]; delivery vehicle CRM, incubation time 5 min, room temperature) was 58% and the “Pc4 Bound to RBC” value (RBC [1]; delivery vehicle CRM, incubation time 30 min, room temperature) was 58%. The “Pc4 Bound to RBC” value (RBC [1]; delivery vehicle CRM, incubation time 90 min, room temperature) was 64%, the “Pc4 Bound to RBC” value (RBC [1]; delivery vehicle DMSO, incubation time 0 min, room temperature) was 54% and the “Pc4 Bound to RBC” value (RBC [1]; delivery vehicle DMSO, incubation time 5 min, room temperature) was 54%. For the same compound, the “Pc4 Bound to RBC” value (RBC [1]; delivery vehicle DMSO, incubation time 30 min, room temperature) was 56%, the “Pc4 Bound to RBC” value (RBC [1]; delivery vehicle DMSO, incubation time 90 min, room temperature) was 54% and the “Pc4 Bound to RBC” value (RBC [1]; delivery vehicle Liposomes (POPC:DOPS = 9:1), incubation time 0 min, room temperature) was 6%. The “Pc4 Bound to RBC” value (RBC [1]; delivery vehicle Liposomes (POPC:DOPS = 9:1), incubation time 5 min, room temperature) was 9%, the “Pc4 Bound to RBC” value (RBC [1]; delivery vehicle Liposomes (POPC:DOPS = 9:1), incubation time 30 min, room temperature) was 15% and the “Pc4 Bound to RBC” value (RBC [1]; delivery vehicle Liposomes (POPC:DOPS = 9:1), incubation time 90 min, room temperature) was 44%. The “Pc4 Bound to RBC” value (RBC [1]; liposomal preparation POPC:DOPS = 1:1, 35 minutes at 4° C.) was 0.8%, the “Pc4 Bound to RBC” value (RBC [1]; liposomal preparation POPC:DOPS = 1:2, 35 minutes at 4° C.) was 1.0% and the “Pc4 Bound to RBC” value (RBC [1]; liposomal preparation POPC:DOPS = 4:1, 35 minutes at 4° C.) was 4.4%. For the same compound, the “Pc4 Bound to RBC” value (RBC [1]; liposomal preparation POPC:DOPS = 9:1, 35 minutes at 4° C.) was 4.8%, the “Pc4 Bound to RBC” value (RBC [1]; liposomal preparation POPC:DOPS:PEG = 8:1:1, 35 minutes at 4° C.) was 23.5% and the “Pc4 Bound to RBC” value (RBC [1]; liposomal preparation POPC:DOPS:chol = 9:1:10, 35 minutes at 4° C.) was 33.7%. The “Pc4 binding to red cells, effect of liposome composition” value (RBC [1]; words, PEG, cholesterol or DOPS ratio as stated (Table 2)) was “progressively reduced binding of Pc4 to red cells”, the “hemolysis development during storage, 668 nm compared with 700 nm LED” value (RBC [2]; Pc4 2 μM in POPC:DOPS=4:1 liposomes, 10 J/cm^2 (FIG. 6)) was “much faster” and the “rate of hemolysis during storage, 700 nm LED compared with untreated control” value (RBC [2]; Pc4 2 μM in POPC:DOPS=4:1 liposomes, 10 J/cm^2 of 700 nm light (FIG. 6)) was “only slightly faster than in control”. For the same compound, the “RBC damage / hemolysis at equivirucidal doses” value (RBC [2]; Pc4 2 μM in POPC:DOPS=4:1 liposomes, 668 nm (FIG. 4)) was “least RBC damage; also recorded: minimal hemolysis”, the “RBC hemolysis during storage, liposomes vs other vehicles” value (RBC [2]; Pc4 2 μM, 90 J/cm2 broad band red light, 4° C. storage (FIG. 2)) was “less hemolysis” and the “RBC hemolysis during storage, effect of incubation time” value (RBC [2]; liposomal Pc4 2 μM, 90 J/cm2 broad band red light (FIG. 2)) was “incubation for 5 minutes was better than for 30 minutes”. The “hemolysis following a virucidal light dose” value (RBC [2]; liposomal Pc4, 10 J/cm^2, 700 nm, over 3 weeks storage, 30240 min, 2 µM) was at most 1%, the “reduction of circulatory survival of red cells” value (rabbit RBC; rabbit, 10 J/cm^2 of 700 nm light (FIG. 7)) was “about 30%” and the “24 hour recovery in vivo of the treated RBC” value (rabbit RBC; rabbits) was “exceeded 90%”. For the same compound, the “circulatory half-life of RBC” value (rabbit RBC; rabbits, 10 J/cm^2 of 700 nm light, control 10.5 days (FIG. 7)) was 180 h, the “circulatory half-life and 24 hour recovery” value (rabbit RBC; rabbits, liposomal Pc4, 10 J/cm^2, 700 nm) was “close to normal” and the “inactivation of VSV, 668 vs 700 nm LED” value (VSV [3]; Pc4 2 μM in POPC:DOPS=4:1 liposomes, 4° C. (FIG. 5)) was “equally effective”. For the same compound, the “rate of inactivation of VSV, dependence on pre-irradiation incubation time” value (VSV [3]; liposomal Pc4 2 μM, broad band red light (FIG. 1)) was “does not depend on time of incubation of liposomal Pc4 prior to light exposure”, the “VSV kill, effect of incubation temperature” value (VSV [3]; room temperature vs 4° C.) was “not affected by the incubation temperature” and the “Light Dose (for ≥6 log10 virus kill)” value (VSV [4]; Blood Bags (50 ml)) was 22 J/cm2. For the same compound, the “Light Dose (for ≥6 log10 virus kill)” value (VSV [4]; Test Tubes (3 ml)) was 5 J/cm2 and the virus kill (VSV [4]; at the light doses of Table 3) was at least 6 log10.

Cc1c(C)c2c(c(C)c1OC(=O)CCC(=O)O)CCC(C)(CCCC(C)CCCC(C)CCCC(C)C)O2 (stereo not drawn) [α-tocopherol succinate] was tested, and the “Hemolysis After 21 Day Storage” value (RBC [5]; 1 mM α-tocopherol succinate formulated in Ethanol) was 10.5%, the “Hemolysis After 21 Day Storage” value (RBC [5]; 1 mM α-tocopherol succinate formulated in POPC:DOPS = 4:1) was 18.3% and the “Hemolysis After 21 Day Storage” value (RBC [5]; 1 mM α-tocopherol succinate formulated in POPC:DOPS:chol = 9:1:10) was 6.1%. For the same compound, the “Hemolysis After 21 Day Storage” value (RBC [5]; 1 mM α-tocopherol succinate formulated in POPC) was 1.2%.
